Data as given in PMC11356900, “Synthesis, Structural Properties and Biological Activities of Novel Hydrazones of 2-, 3-, 4-Iodobenzoic Acid” (Molecules, 2024).
Converted amounts (≈) assume the structure as drawn. Like-named read-outs stand apart in the source and are kept apart here.

How the values were obtained:
[1] = tested on: Bacillus cereus ATCC 10876; experiment: Broth microdilution MIC/MBC; settings: Bacillus cereus, ATCC10876
[2] = tested on: Escherichia coli ATCC 25922; experiment: Broth microdilution MIC/MBC; settings: ATCC25922
[3] = tested on: Staphylococcus aureus ATCC 25923; experiment: Broth microdilution MIC/MBC; settings: Staphylococcus aureus, ATCC25923
[4] = tested on: Gram-positive bacteria; experiment: Broth microdilution, summary over reference Gram-positive bacteria; type: cell-based; settings: for antibacterial activity in words: reference Gram-positive bacteria / studied bacteria
How it was run: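 Two-fold dilutions in RPMI 1640 with MOPS (fungi) or Mueller-Hinton broth (bacteria), final 1000–0.488 µg/mL, inoculum 0.5 McFarland in 0.85% NaCl. MIC read spectrophotometrically; MBC/MFC as lowest concentration with no visible growth after well contents were spotted onto agar.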

[5] = range over the reference Gram-positive bacteria
[6] = range over the reference Gram-positive bacteria, read-out: MBC
[7] = range over the reference Gram-positive bacteria, read-out: MIC

Structure (SMILES) | MBC [1] [µg/mL] | MIC [1] [µg/mL] | MBC [2] [µg/mL] | MBC/MIC [2] | MIC [2] [µg/mL] | MBC [3] [µg/mL] | MIC [3] [µg/mL] | MBC/MIC [4, 5] | MBC [4, 6] [µg/mL] | MIC [4, 7] [µg/mL] | antibacterial activity in words [4] | MBC [4] [µg/mL] | MIC [4] [µg/mL]
O=C(N/N=C/c1cc(Cl)cc(I)c1O)c1ccc(I)cc1 [Compound 27, N-[(5-chloro-2-hydroxy-3-iodophenyl)methylidene]-4-iodobenzohydrazide] | 250 (≈ 475 µM) | 62.5 (≈ 119 µM) | 500 (≈ 950 µM) | 1 | 500 (≈ 950 µM) | 250 (≈ 475 µM) | 62.5 (≈ 119 µM) | 1–4 | 31.2 to 500 (≈ 59.4 to 950 µM) | 31.2 to 125 (≈ 59.4 to 237 µM) | good (good bioactivity as a MIC in the range 26 – 125 µg/mL) |  | 
O=C(N/N=C/c1cc(Cl)cc(I)c1O)c1cccc(I)c1 [Compound 20, N-[(5-chloro-2-hydroxy-3-iodophenyl)methylidene]-3-iodobenzohydrazide] | 31.2 (≈ 59.4 µM) | 7.81 (≈ 14.8 µM) | > 1000 | > 1 | 1000 (≈ 1900 µM) | 3.91 (≈ 7.43 µM) | 1.95 (≈ 3.7 µM) | 1–4 |  |  | very strong (very strong bioactivity as a MIC < 10 µg/mL) | 3.91 to 62.5 (≈ 7.43 to 119 µM) | 1.95 to 7.81 (≈ 3.7 to 14.8 µM)
O=C(N/N=C/c1cc(Br)cc(Br)c1O)c1cccc(I)c1 [Compound 21, N-[(3,5-dibromo-2-hydroxyphenyl)methylidene]-3-iodobenzohydrazide] | 62.5 (≈ 119 µM) | 15.6 (≈ 29.8 µM) |  |  | > 1000 | 31.2 (≈ 59.6 µM) | 7.81 (≈ 14.9 µM) | 1–4 |  |  | strong or very strong | 3.91 to 62.5 (≈ 7.46 to 119 µM) | 3.91 to 15.6 (≈ 7.46 to 29.8 µM)
O=C(N/N=C/c1cc(I)cc(I)c1O)c1ccccc1I [Compound 14, N-[(3,5-diiodo-2-hydroxyphenyl)methylidene]-2-iodobenzohydrazide] | 250 (≈ 405 µM) | 125 (≈ 202 µM) |  |  |  | 250 (≈ 405 µM) | 125 (≈ 202 µM) | 1–4 | 125 to 1000 (≈ 202 to 1620 µM) | 62.5 to 500 (≈ 101 to 809 µM) | good or moderate |  | 
